From patent publication US12648946B2, “Combination of antibody-pyrrolobenzodiazepine derivative conjugate and PARP inhibitor” (DAIICHI SANKYO COMPANY, LIMITED, priority 2019, dated 2026)
Read-outs that look alike come from different tables or passages of the source.

Tests used:
[1] = tested on: human lung cancer cell line Calu-6; test: Cell growth inhibition test (1); type: cell-based; conditions: for IC50: Calu-6, 144 h
Procedure: The human lung cancer cell line Calu-6 obtained from ATCC (American Type Culture Collection) was used for evaluation. Cells were prepared with MEM containing 10% fetal bovine serum (GE Healthcare), MEM Non-Essential Amino Acids Solution (Thermo Fisher Scientific), and Sodium Pyruvate (Thermo Fisher Scientific) (Thermo Fisher Scientific; hereinafter, referred to as EMEM medium) to reach 1.25×10^4 cells/mL, and 80 μL portions of them were added into a 96-well cell culture microplate. After addition of the cells, the cells were cultured at 37° C. and 5% CO2 overnight.
On the next day, 10 μL portions of pyrrolobenzodiazepine derivative A, B, or C diluted with EMEM medium to 100 pM, 50 pM, 25 pM, 12.5 pM, 6.25 pM, 3.13 pM, 1.56 pM, or 0.78 pM were added to the microplate. To each well without any pyrrolobenzodiazepine derivative, 10 μL of EMEM medium was added. Further, 10 μL portions of olaparib prepared with EMEM medium to reach 2 μM were added to the microplate. To each well without olaparib, 10 μL of EMEM medium was added. Thereafter, the microplate was cultured at 37° C. and 5% CO2 for 6 days. After culturing, the microplate was taken out of the incubator, and left to stand at room temperature for 30 minutes. CellTiter-Glo Luminescent Cell Viability Assay (Promega Corporation) in an amount equivalent to that of the culture solution was added, and stirred using a plate mixer. The microplate was left to stand at room temperature for 10 minutes, and thereafter the amount of emission was measured by using a plate reader (PerkinElmer).
Cell survival rates in wells with derivative A, B, or C were calculated by using the following formula.
[formula] • a: Mean value of amounts of emission from wells with derivative A, B, or C • b: Mean value of amounts of emission from wells with medium • IC50 values were calculated by using the following formula.
(§1) [formula] • a: Concentration of derivative A, B, or C, a • b: Concentration of derivative A, B, or C, b • c: Cell survival rate when derivative A, B, or C of concentration a was added • d: Cell survival rate when derivative A, B, or C of concentration b was added • a and b satisfy a>b at points sandwiching a cell survival rate of 50%.
Cell survival rates in wells with derivative A, B, or C added together with 2 μM olaparib were calculated by using the following formula.
[formula] a: Mean value of amounts of emission from wells with derivative A, B, or C added together with 2 μM olaparib • b: Mean value of amounts of emission from wells with 2 μM olaparib • IC50 values were calculated by using the following formula.
as §1, with “and 2 μM olaparib were” for “was”

[2] = tested on: human ovarian cancer cell line SK-OV-3; test: Cell growth inhibition test (4); type: cell-based; conditions: for IC50: SK-OV-3, 144 h
Procedure: Cells of the human ovarian cancer cell line SK-OV-3 purchased from ATCC (American Type Culture Collection) were used for evaluation. Cells were prepared with McCoy's 5A (Modified) Medium containing 10% fetal bovine serum (GE Healthcare) (Thermo Fisher Scientific; hereinafter, referred to as McCoy's SA medium) to reach 1.25×10^4 cells/mL, and 80 μL portions of them were added into a 96-well cell culture microplate. After addition of the cells, the cells were cultured at 37° C. and 5% CO2 overnight.
On the next day, 10 μL portions of pyrrolobenzodiazepine derivative A diluted with McCoy's 5A medium to 100 pM, 50 pM, 25 pM, 12.5 pM, 6.25 pM, 3.13 pM, 1.56 pM, or 0.78 pM were added to the microplate. To each well without pyrrolobenzodiazepine derivative A, 10 μL of McCoy's 5A medium was added. Further, 10 μL portions of talazoparib prepared with McCoy's 5A medium to reach 5 nM were added to the microplate. To each well without talazoparib, 10 μL of McCoy's 5A medium was added. Thereafter, the microplate was cultured at 37° C. and 5% CO2 for 6 days. After culturing, the microplate was taken out of the incubator, and left to stand at room temperature for 30 minutes. CellTiter-Glo Luminescent Cell Viability Assay (Promega Corporation) in an amount equivalent to that of the culture solution was added, and stirred using a plate mixer. The microplate was left to stand at room temperature for 10 minutes, and thereafter the amount of emission was measured by using a plate reader (PerkinElmer).
Cell survival rates in wells with derivative A were calculated by using the following formula.
[formula] • a: Mean value of amounts of emission from wells with derivative A • b: Mean value of amounts of emission from wells with medium • IC50 values were calculated by using the following formula. […]
Cell survival rates in wells with derivative A added together with 5 nM talazoparib were calculated by using the following formula. […]

Question: `COc1ccc(C2=CN3C(=O)c4cc(OC)c(OCCCCCOc5cc6c(cc5OC)C(=O)N5CC7(CC7)C[C@H]5C=N6)cc4NC[C@@H]3C2)cc1` [derivative A, (11a′S)-7′-Methoxy-8′-[(5-{[(11aS)-7-methoxy-2-(4-methoxyphenyl)-5-oxo-5,10,11,11a-tetrahydro-1H-pyrrolo[2,1-c][1,4]benzodiazepin-8-yl]oxy}pentyl)oxy]-1′,11a′-dihydro-5′H-spiro[cyclopropane-1,2′-pyrrolo[2,1-c][1,4]benzodiazepine]-5′-one] was tested. Which IC50 ([1]; read-out: IC50, growth-suppressing effect, added singly, Calu-6, 6 days) did it give?
Answer: Its IC50 is 6.8 pM.

Question: And the IC50 ([1]; read-out: IC50, growth-suppressing effect, added together with 2 μM olaparib, Calu-6, 6 days)?
Answer: Its IC50 is 4.3 pM.

Question: And the IC50 ([2]; read-out: IC50, growth-suppressing effect, added singly, SK-OV-3, 6 days)?
Answer: The IC50 was 8.1 pM.

Question: What about the IC50 ([2]; read-out: IC50, growth-suppressing effect, added together with 5 nM talazoparib, SK-OV-3, 6 days) of the same compound?
Answer: The IC50 was 4.6 pM.

Question: How did the inhibition at 2 µM ([1]; 144 h, 2 μM olaparib alone, Calu-6, 6 days) turn out when `O=C(c1cc(Cc2n[nH]c(=O)c3ccccc23)ccc1F)N1CCN(C(=O)C2CC2)CC1` [olaparib, reference compound] was run?
Answer: Its inhibition at 2 µM is < 10%.

Question: Which inhibition at 0.005 µM ([2]; 144 h, 5 nM talazoparib alone, SK-OV-3, 6 days) does the source give for `Cn1ncnc1[C@H]1c2n[nH]c(=O)c3cc(F)cc(c23)N[C@@H]1c1ccc(F)cc1` [talazoparib] here?
Answer: The inhibition at 0.005 µM was < 10%.
